Entries after “also recorded” stand apart in the source; their conditions may differ. Ends that are not written are not given here.
Tests used:
[1] = tested on: CLL B lymphocytes (CD19+/CD5+); settings: for Effect of pre-incubation on PKHB1-mediated cell death in CLL cells: added 30 min before PKHB1 200 μM, BAPTA 5 mM, BAPTA-AM 20 μM, 2-APB 60 μM, dantrolene 40 μM, U73122 200 nM, hSIRPα-Fc 15 μg/ml; for Cytotoxicity / PCD in CLL cells (Annexin-V and PI co-positivity): 200-μM peptides, 2 h of treatment (Fig 1D, 1E)
Experimental: (§1) Mononuclear cells were purified from blood samples using a standard Ficoll-Hypaque gradient, and B cells were positively or negatively selected by magnetic microbeads coupled either to an anti-CD19 monoclonal antibody (positive selection) or to anti-CD16,-CD3, and-CD14 monoclonal antibodies (negative depletion) (Miltenyi Biotech). […] B lymphocytes, MEC-1, and M210B4 bone marrow stromal cells (ATCC) were cultured in complete medium (RPMI 1640 supplemented with 10% fetal calf serum, 2 mM L-glutamine, and 100 U/ml penicillin-streptomycin). In selected experiments, CLL cells were cultured in Ca^2+-free medium (RPMI 1640 without calcium, supplemented with dialyzed 10% fetal calf serum) prior to the induction of cell death.
(§2) Annexin-V-APC (0.1 μg/ml; BD Biosciences) was used for the assessment of phosphatidylserine exposure, propidium iodide (PI, 0.5 μg/ml) for cell viability analysis, and tetramethylrhodamine ethyl ester (TMRE, 20 nM) for mitochondrial transmembrane potential (ΔΨm) quantification. PCD was recorded in a FACSCanto II (BD Biosciences) in the total population (10,000 cells), and data were analyzed using FlowJo software. Chymotrypsin-like serine protease (serpase) or caspase cytofluorometric detection was performed with SerPase or Caspase activity kits from Imgenex (IMI-2301 and IMI-2315). Residual and leukemic B cells from CLL patients were discriminated from the mononuclear blood fraction by double labeling with anti-CD19 PerCP-Cyc5.5 (clone SJ25C1; BD Biosciences) and anti-CD5-PE-Cy7 mAb (clone L17F12; BD Biosciences). T cells from CLL patients were identified by a double anti-CD19 PerCP-Cyc5.5 and anti-CD3-PE-Cy7 (clone SK7; BD Biosciences) staining. Calreticulin cell surface exposure was recorded with anti-calreticulin-PE (clone FMC75; Assay Designs). […] A QuantiBRITE flow cytometry system (BD Biosciences) was used to assess the number of CD47 molecules expressed on normal and CLL B lymphocytes.
To induce PCD, 1 × 10^6 cells/ml were treated for 2 h with PKHB1 (200 μM), 4N1K (300 μM), 4NGG (300 μM), or an anti-CD47 monoclonal antibody ([…], clone B6H12 in soluble or immobilized conditions). To provide pro-survival microenvironment signals, CLL cells were pre-incubated with sCD40L (5 μg/ml) and IL-4 (20 ng/ml) or co-cultured with the M210B4 bone marrow stromal cell line (ATCC) before death was induced. To control for caspase-dependent apoptosis, cells were incubated for 12 h with etoposide (250 μM). For the inhibition assays, BAPTA-AM (20 μM); BAPTA (5 mM); Ru360 (750 nM); dantrolene (40 μM); 2-aminoethoxydiphenyl borate (2-APB, 60 μM); U73122 (200 nM); the broad spectrum caspase inhibitors Q-VD-OPh (QVD, 10 μM) and z-VAD-FMK (50 μM); the specific caspase inhibitors z-DEVD-FMK (50 μM, caspase-3/7), z-LEHD-FMK (50 μM, […]), and z-IETD-FMK (50 μM, […]); the serpase inhibitor TPCK (20 μM); or the fusion protein hSIRPα-Fc (15 μg/ml) was added 30 min before inducing PCD.

[2] = Peptide degradation assay in human serum (HPLC); format: in vitro ADME; settings: peptide 10 mg/ml in 1:4 human serum/RPMI 1640, 37°C, absorbance 220 nm
Experimental: 4N1K or PKHB1 (10 mg/ml), diluted in a 1:4 human serum/RPMI 1640 mixture, was incubated at 37°C for different lengths of time, then mixed with ethanol and 5 ml of 1 M NaOH and incubated at 4°C for at least 15 min to precipitate serum proteins. The supernatant was collected and injected in an HPLC system, and the soluble peptide was eluted by a linear gradient of 5% to 50% ACN (0.1% [v/v] TFA in acetonitrile) in aqueous 0.1% (v/v) TFA. The concentration of the peptide was calculated by the integration of the absorbance at 220 nm as a function of the retention time.

[3] = tested on: CD19+/CD5- B cells (residual B cells); assay: Cell death by Annexin-V/PI in residual B cells of CLL patients; format: cell-based, human; settings: 200 μM, 2 h; n = 20 (Fig 1G)
Experimental: as §2, with “lymphocytes. […]” for “lymphocytes.”

[4] = tested on: CD19-/CD3+ T cells; assay: Cell death by Annexin-V/PI in T cells of CLL patients; format: cell-based, human; settings: 200 μM, 2 h; n = 8 (Fig 1G)
Experimental: as §2, with “lymphocytes. […]” for “lymphocytes.”

[5] = tested on: MEC-1 tumors; assay: CLL-xenograft model: MEC-1 tumors in NSG mice; format: in vivo, mouse (NOD/scid gamma); settings: weekly intraperitoneal injection; n = 8 per group (Fig 7C)
Experimental: In the CLL-xenograft model, MEC-1 cells (3 × 10^6) were injected subcutaneously into NOD/scid gamma (NSG) mice. When the tumor volume reached 100 mm^3, mice received intraperitoneal injections of PBS, PKHB1, or 4N1K (200 μg in 200 μl of PBS) once a week. Tumor size was measured with a caliper, and tumor volume was calculated using the formula (length × width^2)/2 and expressed in cubic millimeters. Alternatively, at 28 d after the engraftment, XenoLight RediJect 2-DG 750 Probe (Caliper) was injected into the retro-orbital sinus to visualize tumor glucose uptake, which reflects cell proliferation. Fluorescence was measured using an in vivo imaging system FX Pro (Kodak), and pictures were analyzed with Carestream Molecular Imaging software.
To determine hemoglobin levels, tumors were excised from euthanized mice, weighed, and homogenized in PBS. After centrifugation, formic acid was added to the supernatant, and the hemoglobin concentration was calculated based on the absorbance at 405 nm.
To assess PCD, calreticulin exposure, and PLCγ1-Y783, dissociated tumors were digested in medium containing Liberase-TL (Roche), DNase-I (Calbiochem), and Collagenase-IV (Life Technologies). Single-cell suspension, obtained by filtering through a […] cell strainer, was analyzed by flow cytometry.

[6] = Mice toxicity studies (hematology, kidney and liver histology); format: in vivo, mouse (NSG; settings: weekly intraperitoneal injection, 10 mg/kg, 3 wk, NSG or C57BL/6 mice (S9 Fig)
Experimental: In mice toxicity studies, we used the same injection protocol as in xenografted NSG mice. The hematological parameters were monitored in blood drawn from the retro-orbital plexus from either vehicle- (PBS) or PKHB1-treated wild-type mice (C57BL/6) with an MS9–5 analyzer (Melet Schloesing). Kidneys and livers (24 h after the third injection of PBS or PKHB1) were fixed and embedded in paraffin. Paraffin sections ([…] thick) of kidney and liver were deparaffinized and rehydrated before staining with periodic acid—Schiff and hematoxylin-eosin, respectively.

[7] = tested on: CLL cells; assay: Caspase activity (FAM caspase detection kit) in CLL cells; format: cell-based, human; settings: PKHB1 200 μM, 2 h; etoposide 250 μM, 12 h; representative CLL donor (Fig 2G)
[8] = tested on: MEC-1 cells; assay: Cell death by Annexin-V/PI in MEC-1 cells; format: cell-based, human; settings: PKHB1 200 μM, 2 h; etoposide 250 μM, 12 h (S7, S8 Figs)
Experimental: as §1
Annexin-V-APC (0.1 μg/ml; BD Biosciences) was used for the assessment of phosphatidylserine exposure, propidium iodide (PI, 0.5 μg/ml) for cell viability analysis, and tetramethylrhodamine ethyl ester (TMRE, 20 nM) for mitochondrial transmembrane potential (ΔΨm) quantification. PCD was recorded in a FACSCanto II (BD Biosciences) in the total population (10,000 cells), and data were analyzed using FlowJo software. […] Calreticulin cell surface exposure was recorded with anti-calreticulin-PE (clone FMC75; Assay Designs). […]

[9] = target: CD47 (Homo sapiens, UniProt Q08722); assay: Binding to CD47 (fluorescence polarization, isothermal titration calorimetry, microscale thermophoresis); settings: isothermal titration calorimetry and microscale thermophoresis binding assays (methods per ref 82), read-out: Dissociation constant (Kd) to CD47
Source text: Supplementary file pmed.1001796.s002.tif: S2 Fig Primary structure of 4NGG, 4N1K, and PKHB1. In 4NGG, the two central valines of 4N1K were replaced by glycines (highlighted in red). In PKHB1, the N- and C-terminal lysines of 4N1K were replaced with their D counterparts (highlighted in green). […] (TIF) Click here for additional data file.

[10] = target: T1, CD47 (UniProt Q08722 19-323); assay: fluorescence polarisation + ITC + MST; not told; one Kd is printed for each peptide for the three methods together; the legend refers to ref. 82
T1 construct: CD47; in the cell death assays it is the endogenous CD47 on human CLL B cells; the CD47 preparation is not described; also called cell surface receptor CD47
T1 sequence (Q08722 19-323): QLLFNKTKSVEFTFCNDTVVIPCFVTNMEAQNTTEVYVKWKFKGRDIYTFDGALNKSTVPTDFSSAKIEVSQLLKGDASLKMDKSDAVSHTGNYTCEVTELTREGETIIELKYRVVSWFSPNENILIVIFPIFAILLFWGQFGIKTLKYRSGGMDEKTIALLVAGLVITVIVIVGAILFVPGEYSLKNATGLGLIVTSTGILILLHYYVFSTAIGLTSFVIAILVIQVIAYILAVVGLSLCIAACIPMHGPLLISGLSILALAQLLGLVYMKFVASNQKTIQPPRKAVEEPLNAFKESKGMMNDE

Sequence of CD47 (Homo sapiens, UniProt Q08722) (Q08722 19-323): as above

**Q.** Which “Effect of pre-incubation on PKHB1-mediated cell death in CLL cells” value (from here on “Effect of pre-incubation”) ([1]; 2 h) does the source give for `NCCOB(c1ccccc1)c1ccccc1` [2-APB, 2-aminoethoxydiphenyl borate] here?
**A.** Its value is “significantly decreased”.

**Q.** For `CSCC[C@H](NC(=O)[C@@H](NC(=O)[C@@H](NC(=O)[C@H](Cc1ccc(O)cc1)NC(=O)[C@H](Cc1ccccc1)NC(=O)[C@H](CCCNC(=N)N)NC(=O)[C@@H](N)CCCCN)C(C)C)C(C)C)C(=O)N[C@@H](Cc1c[nH]c2ccccc12)C(=O)N[C@@H](CCCCN)C(=O)N[C@@H](CCCCN)C(=O)O` [4N1K], which “Cytotoxicity / PCD in CLL cells (Annexin-V and PI co-positivity)” value [1] is on record?
**A.** Its value is ~ 25%.

**Q.** What about the metabolised at 1 h, 10 mg/ml ([2]; human serum diluted 1:4 in RPMI 1640, 1-h incubation, serum proteins precipitated with ethanol/NaOH, read-out: Peptide degraded in human serum) of the same molecule?
**A.** Its metabolised at 1 h, 10 mg/ml is > 90%.

**Q.** For `CC(=O)OCOC(=O)CN(CC(=O)OCOC(C)=O)c1ccccc1OCCOc1ccccc1N(CC(=O)OCOC(C)=O)CC(=O)OCOC(C)=O` [BAPTA-AM], which “Effect of pre-incubation” value ([1]; 2 h) is on record?
**A.** The value was “significantly decreased”.

**Q.** For `O=C(O)CN(CC(=O)O)c1ccccc1OCCOc1ccccc1N(CC(=O)O)CC(=O)O` [BAPTA], which “Effect of pre-incubation” value ([1]; 2 h) is on record?
**A.** Its value is “abolished”.

**Q.** Which results are given for `CSCC[C@H](NC(=O)[C@@H](NC(=O)[C@@H](NC(=O)[C@H](Cc1ccc(O)cc1)NC(=O)[C@H](Cc1ccccc1)NC(=O)[C@H](CCCNC(=N)N)NC(=O)[C@H](N)CCCCN)C(C)C)C(C)C)C(=O)N[C@@H](Cc1c[nH]c2ccccc12)C(=O)N[C@@H](CCCCN)C(=O)N[C@H](CCCCN)C(=O)O` [PKHB1]?
**A.** Cytotoxicity / PCD in CLL cells (Annexin-V and PI co-positivity) [1]: ~ 49%; Cytotoxicity in residual CD5- B lymphocytes of CLL patients [3]: ~ 5%; Cytotoxicity in T cells of CLL patients [4]: ~ 10%; Degradation during long-term incubation in human serum ([2]; long-term incubation): not degraded; Anemia (hemoglobin levels within the engrafted tumors) [5]: did not provoke anemia; Blood, liver, kidney toxicity [6]: no toxic effect; also recorded: No blood, liver, or kidney toxicity

**Q.** For `COc1ccc2c(c1)CC[C@@H]1[C@@H]2CC[C@]2(C)[C@@H](NCCCCCCN3C(=O)C=CC3=O)CC[C@@H]12` [U73122], which “Effect of pre-incubation” value ([1]; 2 h) is on record?
**A.** The value was “significantly decreased PCD”.

**Q.** With `O=C1CN(/N=C/c2ccc(-c3ccc([N+](=O)[O-])cc3)o2)C(O)=N1` [dantrolene] as the molecule, how does the “Effect of pre-incubation” value ([1]; 2 h) read?
**A.** Its value is “significantly decreased”.

**Q.** For `COc1cc([C@@H]2c3cc4c(cc3[C@@H](O[C@@H]3O[C@@H]5CO[C@@H](C)O[C@H]5[C@H](O)[C@H]3O)[C@H]3COC(=O)[C@H]23)OCO4)cc(OC)c1O` [etoposide], which “Cell death response with microenvironment survival signals (sCD40L + IL-4 or M210B4 bone marrow stromal cells)” value ([1]; PKHB1 200 μM, 2 h, etoposide 250 μM, 12 h, n = 8 patients (Fig 2B)) is on record?
**A.** Its value is “significantly diminished”.

**Q.** And the “Activated caspases, positive cells” value [7]?
**A.** The value was ~ 47%.

**Q.** What about the “Cell death response of MEC-1 cells (dysfunctional TP53)” value [8] of the same molecule?
**A.** The value was “resistant to etoposide treatment”.

**Q.** With KRFYGGMWKK [4NGG] as the molecule, how does the Kd [9] read?
**A.** Its Kd is 1000 µM.

B1: 4N1K (peptide)
peptide: KRFYVVMWKK
notes: N-terminal lysine introduced to improve solubility, not part of thrombospondin-1; stretch of the C-terminal domain of thrombospondin-1 (TSP1); C-terminal lysine introduced to improve solubility, not part of thrombospondin-1; also called K-R-F-Y-V-V-M-W-K-K; TSP1-derived decapeptide; source: synthetic peptide (solid-phase synthesis, purified by reverse phase HPLC, purity greater than 95%)
**Q.** Which Kd [10] does the source give for B1 here?
**A.** Its Kd is 1.5 µM.

B2: PKHB1 (peptide)
peptide: KRFYVVMWKK
modifications: D-lysine at the N-terminus and D-lysine at the C-terminus (printed as lower-case k)
notes: N-terminal lysine, not part of thrombospondin-1 (introduced in 4N1K to improve solubility); here the D analogue; stretch of the C-terminal domain of thrombospondin-1 (TSP1); C-terminal lysine, not part of thrombospondin-1 (introduced in 4N1K to improve solubility); 4N1K with its N- and C-terminal lysines replaced by their D counterparts; also called k-R-F-Y-V-V-M-W-K-k; source: synthetic peptide …
**Q.** Which Kd [10] does the source give for B2 here?
**A.** The Kd was 0.4 µM.
